{
  "source": "patent US11498909B2",
  "about": "“Compound acting as antibiotics” (KBP BIOSCIENCES CO., LTD., priority 2018, dated 2022)",
  "key": {"Pseudomonas aeruginosa [1]": {"tested_on": "Pseudomonas aeruginosa", "experiment": "In vitro antibacterial activity against Pseudomonas aeruginosa, agar dilution MIC (Experiment 3)", "assay_type": "cell-based", "conditions": "CLSI 2018 (Table 5)", "procedure": "Tested samples: the compound of the present invention, prepared according to the preparation example method; Compound C, prepared with reference to WO2008154642A2.\nWith reference to the steps of the agar dilution method in the 2018 USA Clinical and Laboratory Standards Institute (CLSI), the determination of the minimum inhibitory concentration (MIC) of the compounds against the strain(s) was carried out.\nPreparation of drug-containing plate: (1) a drug solution with the highest concentration was prepared, and the highest concentration of each compound was 160 μg/mL. (2) For each compound, the drug solution with the highest concentration was subjected to the double dilution, and a total of 10 concentration gradients was obtained; for each of dilution gradient, 2 mL of the drug solution was added to 18 mL MH agar solution which had been autoclaved at 121° C. and cooled to about 50° C.; the mixture was uniformly mixed, left stand and cooled to give a drug-containing plate; and the plate was labeled. The final concentrations of the compound were respectively 16, 8, 4, 2, 1, 0.5, 0.25, 0.125, 0.06 and 0.03 μg/mL.\nInoculum preparation and inoculation: A fresh single colony was selected, diluted with 0.9% sodium chloride injection, adjusted to 0.5 #McFarland turbidity, and then diluted 10 times with 0.9% sodium chloride injection, then inoculated with an automatic multi-point inoculation instrument to the labeled drug-containing plate."}, "[2]": {"tested_on": "polymyxin-resistant mcr-1 positive Enterobacteriaceae", "experiment": "In vitro antibacterial effect on polymyxin-resistant mcr-1 positive Enterobacteriaceae, agar dilution MIC (Experiment 2)", "assay_type": "cell-based, Escherichia coli", "procedure": "Tested samples: the compounds of the present invention, prepared according to the methods of the preparation examples;\nPolymyxin E sulphate, Ampicillin, Cefotaxime, Gentamicin, Ciprofloxacin, Tetracycline, and Bactrim were all commercial products, the following experiments were carried out according to the content of an effective ingredient in each commercial product.\nTested strains: Escherichia coli carrying mcr-1 gene isolated from animals and Escherichia coli ATCC25922, a quality control strain, were provided by South China Agricultural University.\nWith reference to the agar dilution method in CLSI, the MIC value of the tested drugs to the polymyxin resistant mcr-1 positive Escherichia coli were determined.\nPreparation of drug-containing agar plates: a drug solution with the highest concentration was prepared for each compound; the drug solution with the highest concentration was subjected to the double dilution; for each of dilution gradient, 1 mL (20×drug working solution) of the drug solution was added to 19 mL MH agar at 45-50° C.; immediately after addition, the agar and the drug solution were uniformly mixed to give a drug-containing agar plate with final concentrations of […], and the plate was solidified for later use; and in the meanwhile, a growth control group was arranged.\nInoculum preparation and culture: the strains stored at −80° C. were rejuvenated and formulated with broth so that the turbidity reached or exceeded 0.5 #McFarland unit; a 96-well plate was used as the inoculation tank, and the bacterial solution was diluted with sodium chloride injection so that the content of bacteria inoculated on the agar was 10^4 CFU/point. A multi-point inoculation instrument was used to inoculate the bacterial solution to the surface of the labeled drug-containing agar. After the water in the inoculation point was completely absorbed by the agar, the plate was placed upside down in a 37° C. constant-temperature incubator and incubated for 16-20 hours."}, "Escherichia coli": {"tested_on": "Escherichia coli", "experiment": "In vitro antibacterial activity, agar dilution MIC (Experiment 1)", "assay_type": "cell-based", "summary_of_the_method": "(§1)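 MIC is the minimum inhibitory concentration, determined by agar dilution per the NCCLS M7-A7 standard. Strains tested were E. coli ATCC25922, P. aeruginosa ATCC27853 and K. pneumoniae ATCC700603.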"}, "Pseudomonas aeruginosa [3]": {"tested_on": "Pseudomonas aeruginosa", "experiment": "In vitro antibacterial activity, agar dilution MIC (Experiment 1)", "assay_type": "cell-based", "conditions": "agar dilution (Table 3)", "summary_of_the_method": "as §1"}, "Klebsiella pneumoniae": {"tested_on": "Klebsiella pneumoniae", "experiment": "In vitro antibacterial activity, agar dilution MIC (Experiment 1)", "assay_type": "cell-based", "conditions": "agar dilution", "summary_of_the_method": "as §1"}, "[4]": {"experiment": "Pharmacokinetics (PK) determination in SD rats (Experiment 4)", "assay_type": "in vivo", "conditions": "plasma, 2 mg/kg", "summary_of_the_method": "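SD rats; caudal-vein blood on heparin, plasma stored at −80 °C. Plasma protein-precipitated with internal standard, diluted with water and quantified by LC-MS/MS on C18 column; PK parameters by noncompartmental-software analysis.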"}},
  "data": [
    {"smiles": "CC(O)[C@H](NC(=O)c1ccc(C#CC#Cc2ccc(CO)o2)cc1)C(=O)NO", "note": "(stereo in doubt) [Compound 6, N-((2S,3R)-3-hydroxy-1-(hydroxyamino)-1-oxobutan-2-yl)-4-((5-(hydroxymethyl)furan-2-yl)buta-1,3-diynyl)benzamide]", "values": [
      {"measurement": "MIC50", "setting": "Pseudomonas aeruginosa [1]", "value": 0.5, "unit": "µg/mL"},
      {"measurement": "MIC90", "setting": "Pseudomonas aeruginosa [1]; read-out: MIC90", "value": 1, "unit": "µg/mL"},
      {"measurement": "MIC90", "setting": "[2]; Escherichia coli, read-out: MIC90 Value, polymyxin-resistant mcr-1 positive Escherichia coli, agar dilution", "value": 1, "unit": "µg/mL"},
      {"measurement": "MIC90 Value", "setting": "[2]; polymyxin-resistant mcr-1 positive Escherichia coli, agar dilution", "value": 0.5, "unit": "µg/mL"},
      {"measurement": "MIC50", "setting": "Escherichia coli", "value": 0.125, "unit": "µg/mL"},
      {"measurement": "MIC90", "setting": "Escherichia coli", "value": 0.125, "unit": "µg/mL"},
      {"measurement": "MIC50", "setting": "Pseudomonas aeruginosa [3]; read-out: MIC50", "value": 0.25, "unit": "µg/mL"},
      {"measurement": "MIC90", "setting": "Pseudomonas aeruginosa [3]; read-out: MIC90", "value": 1, "unit": "µg/mL"},
      {"measurement": "MIC50", "setting": "Klebsiella pneumoniae; read-out: MIC50", "value": 1, "unit": "µg/mL"},
      {"measurement": "MIC90", "setting": "Klebsiella pneumoniae; read-out: MIC90", "value": 1, "unit": "µg/mL"},
      {"measurement": "Cl_obs", "setting": "[4]; IV 2 mg/kg", "value": "8.33 ± 1", "unit": "mL/min/kg"},
      {"measurement": "Vz_obs", "setting": "[4]; IV 2 mg/kg", "value": "0.46 ± 0.14", "unit": "L/kg"},
      {"measurement": "t1/2z", "setting": "[4]; IV 2 mg/kg", "value": "37.2 ± 7.2", "unit": "min"},
      {"measurement": "λ_z", "setting": "[4]; IV 2 mg/kg", "value": "1.14 ± 0.21", "unit": "h⁻¹"},
      {"measurement": "AUC(0-t)", "setting": "[4]; Sprague-Dawley (SD), rat, iv", "value": "4000 ± 442", "unit": "ng·h/mL"},
      {"measurement": "AUC(0-inf)", "setting": "[4]; Sprague-Dawley (SD), rat, iv, read-out: AUCINF_obs", "value": "4010 ± 443", "unit": "ng·h/mL"}
    ]}
  ]
}
